Experiment [1] addresses T1, thrombin receptor (PAR-1) (Homo sapiens, UniProt P25116).
T1 construct: CHRF membranes (Jones, Biochim. Biophys. Acta 1992, 1136, 272) are thawed from −70° C; endogenous in cells; host or cells: CHRF cell membranes (CHRF-288 megakaryoblastic line, per the cited Jones 1992)
T1 sequence (P25116 22-425): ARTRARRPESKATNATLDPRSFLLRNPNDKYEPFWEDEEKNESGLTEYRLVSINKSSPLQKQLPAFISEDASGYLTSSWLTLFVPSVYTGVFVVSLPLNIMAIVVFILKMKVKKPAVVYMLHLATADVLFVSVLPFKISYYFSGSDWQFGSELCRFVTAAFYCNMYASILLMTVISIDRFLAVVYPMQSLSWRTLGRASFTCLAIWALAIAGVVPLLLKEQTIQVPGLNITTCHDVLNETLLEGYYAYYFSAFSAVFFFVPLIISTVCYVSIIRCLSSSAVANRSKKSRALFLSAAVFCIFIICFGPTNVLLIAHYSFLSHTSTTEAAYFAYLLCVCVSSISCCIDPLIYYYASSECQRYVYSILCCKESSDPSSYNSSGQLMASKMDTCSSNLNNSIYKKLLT
The experiment is described as follows: In vitro thrombin receptor binding assay (CHRF membranes). The settings on record: tritiated 721-40 (Ser-pFPhe-Har-Leu-Har-Lys-Tyr-NH2), 30 min incubation. As for the experimental part: In Vitro Thrombin Receptor Binding Assay
CHRF membranes (Jones, Biochim. Biophys. Acta 1992, 1136, 272) are thawed from −70° C., centrifuged at maximum speed for 5 min, washed twice with binding buffer (50 mM HEPES containing 5 mM MgCl2 and 0.1% BSA), and re-suspended in binding buffer ([…]). 100 μL of membranes are added to the 24-Wallac plates and delivered to the Tomtech apparatus. In a typical experiment, 6 μL of samples (from a 125 μg/mL intermediary plate, 20% DMSO) and 44 μL buffer are delivered to the plates (final conc. of compounds is 3.7 μg/mL, 0.6% DMSO). Similarly, 6 μL 20% DMSO and 44 μL buffer are delivered to both column 1 (NSB) and column 12 (TB). 10 μL Ser-pFPhe-Har-Leu-Har-Lys-Tyr-NH2 (721-40; 500 μM in deionized water) is added to column 1. 50 μL tritiated 721-40 (specific activity 46 Ci/mmol) is added to all the wells. The plates are mixed well for 20 seconds, incubated for 30 min, and then harvested with 10 mM HEPES/138 mM NaCl using the Skatron harvester. The filters (GF/C Brandel FPXLR 296) are presoaked 3 h in 0.5% polyethylenimine in HEPES/0.1M N-acetylglucosamine) are set in saran wrap and dried for 3 min in the microwave, and placed in sample bags (Wallac 1450-432). 4.5 mL scintillation fluid (Wallac, Betaplate Scint 1205-440) is added. The bags are sealed, placed in filter cassettes (Wallac 1450-104), and analyzed on the microbeta counter.
(§1) Table 3 contains IC50 values (μM) of the compounds against platelet aggregation stimulated by thrombin and IC50 values (μM) in a thrombin receptor (PAR-1) binding assay.

Experiment [2] has as its system gel-filtered platelets. The experiment is described as follows: Inhibition of thrombin-induced gel-filtered platelet aggregation. It counts as cell-based. To be noted: aggregation initiated by human α-thrombin 0.113 nM-0.187 nM, OD 650 at 0 and 5 min. As for the experimental part:
(§2) In Vitro Inhibition Of Thrombin- and SFLLRN-NH2-Induced Gel-Filtered Platelet Aggregation Assay
(§3) Platelet Rich Plasma concentrate (Biological Specialties, Inc) is gel filtered (Sepharose 2B, Pharmacia) in Tyrode's buffer (140 mM NaCl, 2.7 mM KCl, 12 mM NaHCO3, 0.76 mM Na2HPO4, 5.5 mM dextrose, 5.0 mM Hepes, and 2 mg/ml BSA @ pH 7.4). The gel-filtered platelets are diluted with Tyrode's buffer (143,000 platelets/μl, final platelet count per well), compound solution in buffer, and 2 mM CaCl2 in a 96 well plate. Platelet aggregation is initiated by the addition of human α-thrombin (American Diagnostica, 0.113 nM-0.187 nM) or SFLLRN-NH2 (2 μM) shown to achieve 80% aggregation (0.015-0.025 NIH U/ml, 0.113 nM-0.187 nM). The assay plate is stirred constantly. Platelet aggregation is monitored by intermittently placing the plate in a microplate reader (Molecular Devices) to read optical density ([…], ΔSOFT) at 0 and 5 minutes after the thrombin addition. Aggregation was calculated to be the decrease in optical density between the time 0 and 5 minute measurements. All samples were tested in duplicate wells on the same plate.
as §1

Experiment [3] concerns gel-filtered platelets. Briefly: Inhibition of SFLLRN-NH2-induced gel-filtered platelet aggregation. The experiment is classed as cell-based. To be noted: aggregation initiated by SFLLRN-NH2 (2 μM), OD 650 at 0 and 5 min. The protocol:
as §2, §3

By IC50 is commonly meant the concentration that gives 50% inhibition. Low values mean inhibition by little substance, high ones a need for much substance. As to `N=C(N)NCCCC(NC(=O)Cc1ccccc1)C(=O)NC(Cc1ccccc1)C(=O)Nc1ccc2c(c1)c(CN1CCCC1)cn2Cc1ccc(F)cc1` (centres unmarked) [Compound 17, 5-Guanidino-2-phenylacetylamino-pentanoic acid {1-[1-(4-fluoro-benzyl)-3-pyrrolidin-1-ylmethyl-1H-indol-5-ylcarbamoyl]-2-phenyl-ethyl}-amide], the IC50 worked out at 10.4 µM in experiment [1], 44.5 µM in experiment [2] and 9.8 µM in experiment [3].

With `CCCNCc1cn(Cc2ccc(F)cc2)c2ccc(NC(=O)[C@@H](Cc3ccccc3)NC(=O)[C@@H](CCCNC(=N)N)NC(=O)OC3c4ccccc4-c4ccccc43)cc12` [Compound 1], the figures for the concentration for half-maximal inhibition (IC50) in experiment [2] (Platelet) and in experiment [3] (Platelet) were 51.6 µM and 43.7 µM, respectively.

Consider `N=C(N)NCCC[C@H](NC(=O)OCc1ccccc1)C(=O)N[C@@H](Cc1ccccc1)C(=O)Nc1ccc2c(CN3CCCC3)cn(Cc3ccc(F)cc3)c2c1` [Compound 19], for which the figures for the concentration for half-maximal inhibition (IC50) in experiment [1], in experiment [2] (Platelet) and in experiment [3] (Platelet) were 2.4 µM, 18.7 µM and 11.1 µM, respectively.

Take `CC(=O)N[C@@H](CCCNC(=N)N)C(=O)N[C@@H](CC1CCCCC1)C(=O)Nc1ccc2c(CN3CCCC3)cn(Cc3ccc(F)cc3)c2c1` [Compound 21]: the half-maximal inhibitory concentration (IC50) in experiment [1] turned out to be 10.7 µM; in experiment [2] (Platelet) it was 4.7 µM; in experiment [3] (Platelet), 3.2 µM.

These data come from US7618945B2, “Heteroaryl peptidomimetics as thrombin receptor antagonists” (Janssen Pharmaceutica, N.V., priority 2002, dated 2009).
